Reference: PMC12621202, “RTx-303, an Orally Bioavailable Polθ Polymerase Inhibitor That Potentiates PARP Inhibitors in BRCA Mutant Tumors” (Journal of Medicinal Chemistry, 2025)
Where “and” joins values, the source holds several entries; their conditions need not be identical. Identical values can stand only once. Like-named read-outs stand apart in the source and are kept apart here.

Assays:
BRCA2^-/- HCT116 = assay: Clonogenic (colony) survival assay; assay type: cell-based, human; details: for IC50: Homo sapiens; for fold lower IC50 in BRCA2–/– HCT116 cells compared to RTx-161 / selectivity against BRCA2–/– versus BRCA+/+ HCT116 cells: clonogenic survival
Protocol: (§1) Colony survival assays were performed on 24-well plates. 800 cells/well of HCT, DLD1- BRCA2 −/–, PALB2 −/–, MEF BRCA1 […], PEO1, SNU-601, SKOV3- BRCA2 −/–, OVCAR8 cells and 200 cells/well of HCT, DLD1, MEF, SKOV3 wildtype cells were plated. For MDA pair, 500 cells/well of MDA436 and 100 cells of MDA231 were plated. Cells were treated with the compound 24 h after plating and the medium was replaced every two or 3 days until the colonies were ready for staining. Colonies were typically ready for staining in 10–12 days. For staining: Medium was removed from plates, and cells were rinsed with PBS. Fixation was carried out with Water:Ethanol:Acetic acid (5:4:1) for 30 min followed by staining of colonies with 0.5% crystal violet in Water:Ethanol (3:2) for 2 h at room temperature. The plates were rinsed with water and left for drying overnight at room temperature. Colonies were then counted manually, and response curves are shown as mean colony formation ± SEM. IC50 was calculated with GraphPad Prism using nonlinear regression analysis, inhibitor vs response (variable slope) equation.

Hepatocyte stability = assay type: in vitro ADME; details: cryopreserved hepatocytes
Protocol: Hepatocyte stability assays. Cryopreserved mouse hepatocytes (24 donors, male CD1 mice; Xenotech product M1000.H15+) or human hepatocytes (100 donors; mixed gender; Xenotech product HCP100.H15) were rapidly thawed, diluted with Optithaw (Xenotech product K8500) and centrifuged 5 min at 100 × g. The resuspended cells were stained with 0.016% Trypan Blue and counted. Cell viability was >80%. 0.25 mL of a 1 × 10^6 viable cells/ml cell suspension was added to 16 mm diameter wells of an uncoated polystyrene plate. The prewarmed plate was placed in a 37 °C incubator with 5% CO2 atm with 100 oscillations/min shaking. After 5 min, 0.25 mL of 2 μM test compound in prewarmed HBSS was added per well and mixed to start the reactions with duplicate reactions per compound. Verapamil as the positive control and cell-free reactions were negative controls. At each time point (0, 2, 5, 10, 30, 60, and 120 min), 50 μL aliquots were transferred to a 96-well stop plate containing 150 μL/well of acetonitrile, 0.1% formic acid and 0.1 μM propafenone. The plate was centrifuged for 10 min at 2300 × g. 150 μL of the supernatant was transferred to a mass spect sample plate. Samples were analyzed by UPLC/MS as described. Results were expressed as T1/2 (min) and in vitro Clint (μL/min/10^6 cells). CLint (μL/min/10^6 cells) estimates were determined using a modified method of McGinnity et al.

[1] = Stability in PBS, simulated gastric fluid and simulated intestinal fluid; assay type: in vitro ADME; details: for stability in simulated intestinal and gastric fluids, plasma and PBS buffer: statement in words covering all four matrices
Protocol: Stability in PBS, SGF (simulated gastric fluid) and SIF (simulated intestinal fluid) assays. The stability of test compounds was determined in Dulbecco’s PBS (control solution; pH = 7.4; 136.9 mM NaCl; 2.68 mM KCl; 8.1 mM Na2HPO4; 1.47 mM KH2PO4; 0.9 mM CaCl2 and MgCl2, US Pharmacopeia, defined (US Pharmacopoeia 33–28NF; 2010) Simulated Gastric Fluid (SGF; 0.2% NaCl, 84 mM HCl, pH 1.2 with 3.2 mg/mL pepsin from porcine gastric mucosa), or US Pharmacopoeia-defined Simulated Intestinal Fluid (SIF; 50 mM potassium phosphate, pH 6.8; with 10 mg/mL pancreatin from porcine pancreas). Reactions were conducted in 96-well deep-well (1 mL) polypropylene plates in duplicate. 540 μL of prewarmed 1.11× PBS, SGF or SIF was added to wells of the prewarmed plate in the Labnet Vortemp incubator at 37 °C. Reactions were initiated by adding 60 μL of a 50 μM test compound in water (final concentration of 5 μM) to test wells. Samples were mixed and incubated with gentle shaking. At 0, 30, 90, 210 min, 75 μL aliquots were transferred to a stop plate (96-well plate with 300 μL of ACN:water 1:1 with 0.05 μM propafenone) on ice. After all time points, the stop plate was centrifuged 10 min at 2270 × g in a Beckman Coulter Allegra 6R centrifuge and 170 μL of the supernatants were transferred to a Waters Acquity UPLC 700 μL 96-well sample plate and sealed with a cap mat. After centrifugation (10 min; 4000 × g), supernatants were analyzed by LC/MS as described. Standard curves (0–1000 nM) were generated in PBS and plasma. Data were fit to a one-phase decay equation using GraphPad Prism 5.04 to generate T1/2 values.

BRCA2^+/+ HCT116 = assay: Clonogenic (colony) survival assay; assay type: cell-based; details: Homo sapiens
Protocol: as §1

[2] = Solubility (PBS, 2% DMSO); assay type: physicochemical; details: PBS with 2% DMSO, aqueous buffer, kinetic from dmso stock
Description: Solubility T1/2 simulated simulated
(PBS, 2% T1/2 mouse intestinal gastric
CF R1 OHOH DMSO) PBS plasma fluid fluid
F3C N N >200 µMN >3 hr >3 hr >3 hr > 3 hr
NN >200 HOµMN >3 hr >3 hr >3 hr > 3 hr
Supplementary Fig. 2 Solubility and stability of RTx-284 and RTx-283.

[3] = Pharmacokinetics in CD-1 mice; assay type: in vivo; details: for bioavailability / Cmax / Tmax / AUC(0-t) / half-life: male, mouse, plasma; for AUC(0-t): read-out: AUClast (PO); for half-life: read-out: T1/2 (PO) (converted)
Protocol: For the pharmacokinetics study, CD-1 male mice (6–8 weeks) were dosed by IV or PO at the indicated concentrations of the indicated compounds dissolved in 5% DMSO, 5% ethanol, 20% TPGS, 30% PEG400, 40% water. Plasma samples were collected at the indicated time points and the indicated compound levels were determined by using standard protocols with a calibration curve and LC/MS. The pharmacokinetic studies was carried out by Pharmaron.

[4] = HCT-116, read-out: IC50 BRCA2^-/- HCT116 (μM)
[5] = mouse (CD1, male) hepatocytes, read-out: T1/2 mouse hepatocytes
[6] = Dulbecco's PBS, pH 7.4, read-out: T1/2 PBS
[7] = simulated gastric fluid (SGF) with pepsin, pH 1.2, read-out: T1/2 simulated gastric fluid
[8] = simulated intestinal fluid (SIF) with pancreatin, pH 6.8, read-out: T1/2 simulated intestinal fluid
[9] = HCT-116, read-out: IC50 BRCA2^+/+ HCT116 (μM)
[10] = both sexes, human hepatocytes, mixed gender, read-out: Human* (T1/2 min)

## [2H]C([2H])([2H])N(C(=O)Oc1c(N2CCN(CC(O)CNC)C2=O)cc(C(F)(F)F)cc1C(F)(F)F)c1ccc(F)cc1 (stereo not drawn) [RTx-283, 2-(3-(2-Hydroxy-3-(methylamino)propyl)-2-oxoimidazolidin-1-yl)-4,6-bis(trifluoromethyl)phenyl (4-fluorophenyl)(methyl-d3)carbamate]
BRCA2^-/- HCT116; [4]
  IC50: 0.03 µM
BRCA2^-/- HCT116
  fold lower IC50 in BRCA2–/– HCT116 cells compared to RTx-161: > 10 fold
  selectivity against BRCA2–/– versus BRCA+/+ HCT116 cells: > 100 fold
Hepatocyte stability; [5]
  half-life at 1 μM: 0.813 h
[1]; [6]
  half-life at 5 μM: > 3 h
[1]; [7]
  half-life at 5 μM: > 3 h
[1]; [8]
  half-life at 5 μM: > 3 h
BRCA2^+/+ HCT116; [9]
  IC50: 16.3 µM
[2]
  solubility: > 200 µM
[3]; 5 mg/kg IV, 15 mg/kg PO (n=3)
  bioavailability: 44.3%
[3]; 15 mg/kg PO (n=3)
  Cmax: 453 ng/mL
  Tmax: 0.5 h
  AUC(0-t): 2370 ng·h/mL
  half-life: 4.49 h

## [2H]C([2H])([2H])N(C(=O)Oc1c(N2CCN(CC(O)CN(C)C)C2=O)cc(C(F)(F)F)cc1C(F)(F)F)c1ccc(F)cc1 (stereo not drawn) [RTx-284, 2-{3-[3-(Dimethylamino)-2-hydroxypropyl]-2-oxoimidazolidin-1-yl}-4,6-bis(trifluoromethyl)phenyl N-(4-fluorophenyl)-N-(methyl-d3)-carbamate]
BRCA2^-/- HCT116; [4]
  IC50: 0.11 µM
BRCA2^-/- HCT116
  fold lower IC50 in BRCA2–/– HCT116 cells compared to RTx-161: > 10 fold
  selectivity against BRCA2–/– versus BRCA+/+ HCT116 cells: > 100 fold
Hepatocyte stability; [5]
  half-life at 1 μM: 0.32 h
[1]; [6]
  half-life at 5 μM: > 3 h
[1]; [7]
  half-life at 5 μM: > 3 h
[1]; [8]
  half-life at 5 μM: > 3 h
BRCA2^+/+ HCT116; [9]
  IC50: > 12 µM
[2]
  solubility: > 200 µM
[3]; 5 mg/kg IV, 15 mg/kg PO (n=3)
  bioavailability: 100% and 103%
[3]; 15 mg/kg IV, 50 mg/kg PO (n=3)
  bioavailability: 99%
[3]; 15 mg/kg PO (n=3)
  Cmax: 659 ng/mL
  Tmax: 1.33 h
  AUC(0-t): 5930 ng·h/mL
  half-life: 2.43 h
[3]; 50 mg/kg PO (n=3)
  Cmax: 2750 ng/mL
  Tmax: 2 h
  AUC(0-t): 30700 ng·h/mL
  half-life: 3.32 h

## [2H]C([2H])([2H])N(C(=O)Oc1c(N2CCN(C[C@H](O)CN(C)C)C2=O)cc(C(F)(F)F)cc1C(F)(F)F)c1ccc(F)cc1 [RTx-303]
BRCA2^-/- HCT116; HCT-116, read-out: IC50(nM) HCT116 BRCA2 –/–
  IC50: 0.0812 µM
Hepatocyte stability; [10]
  half-life at 1 μM: 1 h
Hepatocyte stability; [5]
  half-life at 1 μM: 0.412 h
[1]
  stability in simulated intestinal and gastric fluids, plasma and PBS buffer: high stability
BRCA2^+/+ HCT116; HCT-116, read-out: IC50(nM) HCT116 BRCA2 +/+
  IC50: > 1.28 µM
[2]
  solubility: > 200 µM
[3]; 15 mg/kg IV, 50 mg/kg PO (n=3)
  bioavailability: 88% and 88.1%
[3]; 50 mg/kg PO (n=3)
  Cmax: 2640 ng/mL
  Tmax: 3.3 h
  AUC(0-t): 30200 ng·h/mL
  half-life: 2.6 h
[3]; parent compound, 50 mg/kg PO (n=3)
  Avg. free unbound exposure: 86 nM/h

## [2H]C([2H])([2H])N(C(=O)Oc1c(N2CCN(C[C@H](O)CNC)C2=O)cc(C(F)(F)F)cc1C(F)(F)F)c1ccc(F)cc1 [RTx-315]
Hepatocyte stability; [10]
  half-life at 1 μM: 0.937 h
Hepatocyte stability; [5]
  half-life at 1 μM: 1.15 h
[1]
  stability in simulated intestinal and gastric fluids, plasma and PBS buffer: high stability
